Measured values as given in patent publication US4640926A, “3,5-Substituted-2-pyridylalkylaminothiadiazoles having histamine H1 -antagonist activity” (Smith Kline & French Laboratories Limited, priority 1982, dated 1987).

Legend:
histamine H1 -receptor = target: T1, histamine H1 -receptor (Cavia porcellus, UniProt P31389); assay: guinea pig ileum test (histamine H1-antagonist activity in vitro); assay type: cell-based; settings: isolated guinea pig ileum, histamine-induced contraction, 8 min contact, 30° C., Schild plot; read-out: pA2 value (converted)
T1 construct: an isolated portion of the guinea pig ileum is secured under tension; from tissue; host or cells: isolated guinea pig ileum
Procedure: In this test an isolated portion of the guinea pig ileum is secured under tension (500 mg) between an anchorage and a transducer in a 10 ml tissue bath and immersed in magnesium free Tyrode solution with constant aeration at a temperature of 30° C. The output from the transducer is amplified. The amplified output is in turn fed to a flat bed recorder. Measured amounts of histamine are added to the tissue bath so that the histamine concentration increases step-wise until the force of the contraction reaches a maximum. The tissue bath is washed out and filled with fresh magnesium free Tyrode solution containing compound under test. The solution is left in contact with the tissue for 8 min. and measured amounts of histamine are added again until a maximum contraction is recorded. The assay is repeated with increasing concentrations of test compound and the dose of histamine giving 50% of maximum contraction is noted. A dose ratio (DR) was calculated by comparing the concentrations of histamine required to produce 50% maximum response in the absence and in the presence of the antagonist. A plot of Log DR-1 against Log D (the concentration of compound under test) is made and the point of intersection with the Log (DR-1) ordinate is taken as the measure of the activity (pA2 value).

histamine H2 -receptor = target: T2, histamine H2 -receptor (Cavia porcellus, UniProt P47747); assay: guinea pig atrium test (histamine H2-antagonist activity in vitro); assay type: cell-based; settings: isolated guinea pig right atrium, histamine-stimulated rate of beating, 60 min contact, 37° C., Schild plot; read-out: pA2 value (converted)
T2 construct: isolated portion of the guinea pig right atrium is secured under tension; from tissue; host or cells: isolated guinea pig right atrium
Procedure: The histamine H2 -antagonist activity of the compounds of formula (1) can be determined in vitro in the guinea pig atrium test. In this test a spontaneously beating isolated portion of the guinea pig right atrium is secured under tension (300 mg) between an anchorage and a transducer in a 15 ml tissue bath and immersed in McEwens solution with constant aeration at a temperature of 37° C. The output from the transducer is amplified. Output is in turn fed to a flat bed recorder. Measured amounts of histamine are added to the tissue bath so that the histamine concentration increases step-wise until the rate of beating reaches a maximum. The tissue bath is washed out and filled with fresh McEwens solution containing compound under test. The solution is left in contact with the tissue for 60 min. and measured amounts of histamine are added again until a maximum rate is recorded. The assay is repeated with increasing concentrations of test compound and the dose of histamine giving 50% of maximum rate is noted. A dose ratio (DR) was calculated by comparing the concentrations of histamine required to produce 50% maximum response in the absence and in the presence of the antagonist. A plot of Log DR-1 against Log D (the concentration of compound under test) is made and the point of intersection with the Log (DR-1) ordinate is taken as the measure of the activity (pA2 value).

T2 sequence (P47747 whole entry): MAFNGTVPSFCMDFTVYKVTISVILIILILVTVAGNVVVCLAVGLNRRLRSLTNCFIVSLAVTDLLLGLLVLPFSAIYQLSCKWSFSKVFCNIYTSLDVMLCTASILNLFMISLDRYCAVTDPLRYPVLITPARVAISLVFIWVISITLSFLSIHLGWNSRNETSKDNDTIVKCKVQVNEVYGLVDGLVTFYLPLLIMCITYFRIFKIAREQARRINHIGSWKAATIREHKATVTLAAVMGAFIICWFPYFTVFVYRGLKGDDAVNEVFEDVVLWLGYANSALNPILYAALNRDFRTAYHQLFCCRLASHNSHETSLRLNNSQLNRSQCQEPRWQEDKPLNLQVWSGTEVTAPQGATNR
T1 sequence (P31389 whole entry): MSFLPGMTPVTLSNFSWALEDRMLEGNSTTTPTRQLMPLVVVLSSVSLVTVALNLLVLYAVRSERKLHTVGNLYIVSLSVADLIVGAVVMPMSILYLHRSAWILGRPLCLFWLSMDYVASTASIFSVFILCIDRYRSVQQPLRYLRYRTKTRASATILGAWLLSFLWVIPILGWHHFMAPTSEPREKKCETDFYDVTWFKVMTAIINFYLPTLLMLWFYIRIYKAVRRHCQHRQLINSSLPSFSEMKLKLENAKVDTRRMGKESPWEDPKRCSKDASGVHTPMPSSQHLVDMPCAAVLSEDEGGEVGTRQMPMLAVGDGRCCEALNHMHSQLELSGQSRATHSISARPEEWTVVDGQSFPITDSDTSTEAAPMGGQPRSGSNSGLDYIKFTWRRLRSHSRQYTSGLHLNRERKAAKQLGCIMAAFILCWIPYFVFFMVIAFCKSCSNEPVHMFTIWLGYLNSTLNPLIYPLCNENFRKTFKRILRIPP

Kb (histamine H1 -receptor) [µM] | Kb (histamine H2 -receptor) [µM] | Structure (SMILES)
< 0.01 | > 10 | CNC(=NCCCCc1ncc(Br)cc1C)NC#N [Example 1, N-cyano-N'-methyl-N"-[4-(5-bromo-3-methylpyrid-2-yl)-butyl]-guanidine]
< 0.01 | > 10 | Cc1cc(Br)cnc1CCCCN=C(NC#N)NCc1ccccc1 [Example 2, N-cyano-N'-benzyl-N"-[4-(5-bromo-3-methylpyrid-2-yl)-butyl]-guanidine]
